One series relates to CEM T cells. Description: Cell viability, trypan blue-based assay. As to conditions: 24 h; for effect on cell viability: up to 180 μM, in words. As for the experimental part: CEM T cells were cultured in 96-well plates at 37°C and incubated with the indicated compound concentrations for 24 hrs. Cell viability was determined using trypan blue-based assay.
The target in series [1] is T1, Recombinant PP1 (human PP1α residues 7–300) (Homo sapiens, UniProt P62136).
T1 construct: human PP1α (residues 7–300); His; made in house; host or cells: BL21 (DE3) Escherichia coli, co-expressed with GroEL/GroES chaperones
Put plainly: Surface plasmon resonance direct binding to immobilized PP1. The note with it: SPR. The procedure:
PP1 was purified as previously described. BL21 (DE3) Escherichia coli cells (Invitrogen, Carlsbad, CA, USA) were -transformed with a vector expressing human PP1α (residues 7–300) and pGR07, which expresses GroEL/[…] chaperones (both gifts from Dr Mathieu Bollen and Monique Beullens, KU Leuven, Belgium). The cells were grown in media supplemented with 1 mM MnCl2 at 30°C to an A600 =0.5. Arabinose (2 g per L) was added to induce expression of the GroEL/GroES chaperones. When A600 =1 was reached, the cells were transferred to 10°C and PP1 expression was induced with 0.1 mM Isopropyl β-D-1-thiogalactopyranoside for 20 hrs. Harvested cells were lysed using sonication in a solution containing in 50 mM Tris-HCl (pH 8.0), 5 mM imidazole, 700 mM NaCl, 1 mM MnCl2, 0.1% Triton X-100 (v/v) and protease inhibitors. His-tagged PP1 was purified using a Ni-NTA IMAC column (Qiagen, Valencia, CA, USA). Purified PP1 was dialyzed and stored at −70°C in 50 mM Tris-HCl (pH 8.0), 5 mM imidazole, 700 mM NaCl and 1 mM MnCl2. PP1 activity was then assayed as previously described.
The SPR measurements were conducted on Biacore T200 instrument (GE Healthcare, Piscataway, NJ) at 25°C. Recombinant PP1 was immobilized on a CM5 chip by amine coupling (GE Healthcare). PP1 (200 nM) was captured on flow cell 2 in 10 mM acetate buffer, pH 5.0, supplemented with 2 mM MnCl2. […] Flow cell 1 was used as a reference surface to subtract background signal. Also injections of the buffer alone were used to provide double reference subtraction. […] For binding and kinetics experiments, all compounds were diluted in the running buffer, at 40 μM, 20 μM, 10 μM, 5 μM, 2.5 μM, 1.25 μM and 0 μM and then passed over the two flow cells at a flow rate of 100 μl/min for 60 sec. The number of response units was recorded after the subtraction of the reference flow cell's value (Fc2-1). Two repetitions were performed for each injection. Data were analyzed using the BiaEvaluation software of Biacore with a 1:1 binding model. […] All the small molecular weight compounds were used at 1 μM.
A general note: SPR reads the build-up and loss of mass on a sensor chip optically.

Series [2] in a line: Stability in human liver microsomes. The format is in vitro ADME. The note with it: 1 hr; for % of Total (Liver microsomes, Human): 10 μM 1E7-03, 37°C, 1E7-03 remaining and DP1, DP3 formed. The procedure:
The metabolic stability of 1E7-03 was also investigated using a pool of human and mouse liver microsomes (HMS9PL, MSS9PL, Thermo Scientific) following manufacturer's instructions. In brief, incubations were conducted at 37 ± 1°C in mixtures containing 5 μl of human or mouse liver microsomes (20 mg/ml), 183 μl of potassium phosphate buffer (pH 7.4, 100 mM) and 2 μl of 1E7-03 (10 mM sock solution of 1E7-03 in DMSO was diluted into 1 mM by PBS). The mixture was pre-incubated for 5 min, then initiated the reactions with the addition of 10 μl 20 mM NADPH (Sigma Aldrich). The reactions were terminated after 1 hr incubation by adding 800 μl cold acetone. The mixture was kept at 4°C for 30 min, and the precipitated protein was removed by centrifugation (13, 000 g for 10 min at 4°C). A 250 μl aliquot of supernatant was transferred to a clean test tube and evaporated to dryness using a SpeedVac concentrator. The residue was reconstituted in 50 μl of acetonitrile with 0.1% FA for LC/FT-MS analysis.
For orientation: Liver microsomes are a subcellular fraction often used to study metabolism.

[3] abbreviates: 1:1 binding model, 25°C, read-out: PP1 WT KD.
Where [4] appears, read: as quoted in the discussion, read-out: KD.

Read-outs that look alike come from different tables or passages of the source.

T1 sequence (P62136 7-300): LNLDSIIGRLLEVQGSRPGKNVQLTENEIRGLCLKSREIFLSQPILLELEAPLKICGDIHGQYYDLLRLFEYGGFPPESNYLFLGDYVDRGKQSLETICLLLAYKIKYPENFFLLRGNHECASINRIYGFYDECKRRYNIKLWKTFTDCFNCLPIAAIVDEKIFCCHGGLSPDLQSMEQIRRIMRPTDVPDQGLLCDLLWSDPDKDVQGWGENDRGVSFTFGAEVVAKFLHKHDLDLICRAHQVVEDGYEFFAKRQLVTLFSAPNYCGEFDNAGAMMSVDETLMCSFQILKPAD

What is called Kd is the equilibrium constant for the complex coming apart. Consider `COc1ccc(/C=C2\CCc3c2nc2ccccc2c3C(=O)OC(C)C(=O)O)cc1OC` (stereo not shown) [DP1], for which the “effect on cell viability” value with CEM T cells is “no effect”. The values for the Kd in series [1] (setting [3]) and in series [1] (setting [4]) were 3.75 µM and roughly 4 µM, respectively. Also, the “% of Total (Liver microsomes, Human)” value in series [2] stood at 39.34%.

Turning to `CCNC(=O)NC(=O)C(C)OC(=O)c1c2c(nc3ccccc13)/C(=C/c1ccc(OC)c(OC)c1)CC2` (stereo not shown) [1E7-03], the viability reduction entry in the series with CEM T cells (highest tested 180 μM) is on record as “about 30%”. Further, the values for the dissociation constant Kd in series [1] (setting [3]) and in series [1] (setting [4]) were 6.16 µM and 6.2 µM, respectively. The “% of Total (Liver microsomes, Human)” value in series [2] is given as 59.39%. Moreover, in series [2] (human liver microsomes), the “% of 1E7-03 degraded and converted into DP1” value is recorded as 39%.

In the case of `COc1ccc(/C=C2\CCc3c2nc2ccccc2c3C(=O)O)cc1OC` [DP3], the “effect on cell viability” value in the series on CEM T cells is given as “no effect”. Besides, the figures for the Kd in series [1] (setting [3]) and in series [1] (setting [4]) were 4.88 µM and roughly 4 µM, respectively. Further, the “% of Total (Liver microsomes, Human)” value in series [2] is given as 1.27%.

The values are drawn from article PMC5652740, “Inhibition of HIV-1 infection in humanized mice and metabolic stability of protein phosphatase-1-targeting small molecule 1E7-03” (Oncotarget, 2017).
